Tested on: HUVECs
Test: HUVEC vascular network formation in 3D multi-signaling alginate hydrogels (integrin-binding peptide + QK peptide)
Type: cell-based, human
Conditions: 5% (w/w) MMP-responsive QK peptides, preliminary data
Description: To synergize with the α1 peptide, we used the α1 peptide and an MMP-responsive QK peptide (i.e., GPQG↓IAGKLTWQELYQLKYKGI, SEQ ID NO:41) to prepare an alginate-based injectable, multi-signaling hydrogels (FIG. 9). The MMP-responsive QK peptide was selected to introduce cell-dictated local release of angiogenic factors to recapitulate the pro-angiogenic microenvironment in vivo, where matrix bound VEGF is released by MMPs. Alginates was selected because it has been used as a biocompatible, injectable hydrogel-forming material to treat ischemic diseases.
We developed a modular approach to prepare the multi-signaling hydrogels (FIG. 10). Briefly, we have prepared alginates functionalized with α1 peptide (10% (w/w)) as well as alginates functionalized with MMP-responsive QK peptide (10% (w/w)) using click chemistry. We then mixed these two alginates at a ratio 1:1 (w/w) to prepare multi-signaling hydrogels to simultaneously engage αvβ3, VLA-6 integrins and VEGFR2. This modular approach allowed us to rapidly prepare alginates with different peptide functionalization to screen for an optimal formulation to support EC morphogenesis.

GPQG↓IAGKLTWQELYQLKYKGI (GPQGIAGKLTWQELYQLKYKGI) [MMP-responsive QK peptides, QK peptide with MMP degradable linkage]
EC vascular network formation at given QK peptide content: sufficient to promote EC vascular network formation

Source: patent publication US11150251B2, “Bi-functional arginine-glycine-aspartic acid (RGD) peptides and methods to promote angiogenesis” (Clemson University Research Foundation, priority 2016, dated 2021)
